Data: PubChem BioAssay AID328 (DTP/NCI, 2004)
“And” between values parts separate entries of the source, which are not always exact repeats. Identical values can stand only once. Inconclusive results and toxic doses are left out. The calls were made as follows: active = survival T/C of 150% or more; inactive = T/C below 125% in these data.

Test system: BDF1 mice, P388 leukemia ip, median survival T/C
Test: NCI In Vivo Anticancer Drug Screen. Data for tumor model P388 Leukemia (intraperitoneal) in B6D2F1 (BDF1) mice
Details: endpoint: median survival time, higher = longer survival
In short: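 Survival ratio, drug arm over vehicle arm, in mice with a transplanted tumour.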

[1] = dose: 100.0 mg/kg/injection, schedule: Q04DX003 (ip), vehicle: saline with Tween-80
[2] = dose: 200.0 mg/kg/injection, schedule: Q04DX003 (ip), vehicle: saline with Tween-80
[3] = dose: 400.0 mg/kg/injection, schedule: Q04DX003 (ip), vehicle: saline with Tween-80
[4] = dose: 25.0 mg/kg/injection, schedule: Q04DX003 (ip), vehicle: saline
[5] = dose: 50.0 mg/kg/injection, schedule: Q04DX003 (ip), vehicle: saline
[6] = dose: 50.0 mg/kg/injection, schedule: Q01DX009 (ip), vehicle: Klucel (hydroxypropylcellulose) (HPC)
[7] = dose: 100.0 mg/kg/injection, schedule: Q01DX009 (ip), vehicle: saline with Tween-80
[8] = dose: 200.0 mg/kg/injection, schedule: Q01DX009 (ip), vehicle: saline with Tween-80
[9] = dose: 400.0 mg/kg/injection, schedule: Q01DX009 (ip), vehicle: saline with Tween-80
[10] = dose: 25.0 mg/kg/injection, schedule: Q04DX003 (ip), vehicle: saline with Tween-80
[11] = dose: 50.0 mg/kg/injection, schedule: Q04DX003 (ip), vehicle: saline with Tween-80
[12] = dose: 100.0 mg/kg/injection, schedule: Q01DX001 (ip), vehicle: saline with Tween-80
[13] = dose: 200.0 mg/kg/injection, schedule: Q01DX001 (ip), vehicle: saline with Tween-80
[14] = dose: 400.0 mg/kg/injection, schedule: Q01DX001 (ip), vehicle: saline with Tween-80
[15] = dose: 12.5 mg/kg/injection, schedule: Q01DX009 (ip), vehicle: saline with Tween-80
[16] = dose: 25.0 mg/kg/injection, schedule: Q01DX009 (ip), vehicle: saline with Tween-80
[17] = dose: 50.0 mg/kg/injection, schedule: Q01DX009 (ip), vehicle: saline with Tween-80
[18] = dose: 100.0 mg/kg/injection, schedule: Q04DX003 (ip), vehicle: saline

Measured: T/C

Clc1ccc(/C=N\N=C\c2ccc(Cl)c(Cl)c2)cc1Cl
inactive: [1] 105 % of control | [2] 111 % of control | [3] 111 % of control

C[N+](C)(C)C12CCCCCC1SC2 (centres undefined)
inactive: [4] 106 % of control | [5] 101 % of control

CCCSc1ncnc2nc[nH]c12
inactive: dose: 31.3 mg/kg/injection, schedule: Q01DX010 (ip), vehicle: saline 95 % of control and 120 % of control | dose: 62.5 mg/kg/injection, schedule: Q01DX010 (ip), vehicle: saline 100 % of control and 105 % of control | dose: 125.0 mg/kg/injection, schedule: Q01DX010 (ip), vehicle: saline 95 % of control and 100 % of control

Cc1ccnc(NC(=O)Nc2cc(Cl)ccc2Cl)c1
inactive: dose: 12.5 mg/kg/injection, schedule: Q01DX009 (ip), vehicle: Klucel (hydroxypropylcellulose) (HPC) 101 % of control | dose: 25.0 mg/kg/injection, schedule: Q01DX009 (ip), vehicle: Klucel (hydroxypropylcellulose) (HPC) 103 % of control | [6] 120 % of control

O=S(=O)(CI)OCCCl
inactive: dose: 50.0 mg/kg/injection, schedule: Q01DX005 (ip), vehicle: Klucel (hydroxypropylcellulose) (HPC) 93 % of control | dose: 100.0 mg/kg/injection, schedule: Q01DX005 (ip), vehicle: Klucel (hydroxypropylcellulose) (HPC) 110 % of control

C[N+]12CCCc3cc(CO)cc(c31)CCC2
inactive: dose: 12.5 mg/kg/injection, schedule: Q04DX003 (ip), vehicle: Klucel (hydroxypropylcellulose) (HPC) 103 % of control | dose: 25.0 mg/kg/injection, schedule: Q04DX003 (ip), vehicle: Klucel (hydroxypropylcellulose) (HPC) 100 % of control | dose: 50.0 mg/kg/injection, schedule: Q04DX003 (ip), vehicle: Klucel (hydroxypropylcellulose) (HPC) 119 % of control

CC(=O)/C=C/c1ccco1
inactive: dose: 25.0 mg/kg/injection, schedule: Q01DX009 (ip), vehicle: DMSO 91 % of control | dose: 25.0 mg/kg/injection, schedule: Q04DX003 (ip), vehicle: DMSO 107 % of control | dose: 50.0 mg/kg/injection, schedule: Q01DX009 (ip), vehicle: DMSO 91 % of control | dose: 50.0 mg/kg/injection, schedule: Q04DX003 (ip), vehicle: DMSO 92 % of control

CCOC(=O)N1Cc2cc3cc(OC)c(OC)cc3nc2C1
inactive: [1] 105 % of control | [2] 90 % of control | [3] 105 % of control

CC(=O)N1c2cc3ccccc3cc2N(C(C)=O)c2cc3ccccc3cc21
inactive: [7] 102 % of control | [8] 97 % of control | [9] 117 % of control

CC(C)(C1c2ccccc2C(=NO)c2ccccc21)[N+](=O)[O-] (centres undefined)
inactive: [7] 109 % of control | [1] 91 % of control | [8] 90 % of control | [2] 100 % of control | [9] 100 % of control | [3] 91 % of control

O=C(O)C(OP(=O)(O)O)C(=O)O
inactive: dose: 25.0 mg/kg/injection, schedule: Q01DX009 (ip), vehicle: saline 110 % of control | dose: 50.0 mg/kg/injection, schedule: Q01DX009 (ip), vehicle: saline 95 % of control | dose: 100.0 mg/kg/injection, schedule: Q01DX009 (ip), vehicle: saline 94 % of control | dose: 200.0 mg/kg/injection, schedule: Q01DX009 (ip), vehicle: saline 100 % of control

CCOC(=O)C(=Cc1c[nH]c2ccccc12)C(=O)OCC
inactive: dose: 45.0 mg/kg/injection, schedule: Q04DX003 (ip), vehicle: saline with Tween-80 109 % of control | dose: 65.0 mg/kg/injection, schedule: Q04DX003 (ip), vehicle: saline with Tween-80 113 % of control | [1] 100 % of control and 105 % of control | dose: 150.0 mg/kg/injection, schedule: Q04DX003 (ip), vehicle: saline with Tween-80 109 % of control | [2] 100 % of control and 118 % of control | [3] 90 % of control and 109 % of control

CCOC(=O)CS(=O)(=O)c1ccc(NC(C)=O)cc1
inactive: [6] 104 % of control | dose: 100.0 mg/kg/injection, schedule: Q01DX009 (ip), vehicle: Klucel (hydroxypropylcellulose) (HPC) 91 % of control and 120 % of control | dose: 200.0 mg/kg/injection, schedule: Q01DX009 (ip), vehicle: Klucel (hydroxypropylcellulose) (HPC) 96 % of control and 115 % of control | dose: 400.0 mg/kg/injection, schedule: Q01DX009 (ip), vehicle: Klucel (hydroxypropylcellulose) (HPC) 105 % of control

CCCCN1CCC2(CC1)COCc1ccccc12
inactive: dose: 12.5 mg/kg/injection, schedule: Q04DX003 (ip), vehicle: saline with Tween-80 104 % of control | [10] 98 % of control | [11] 95 % of control

C/C=C/CCCCCCCC
inactive: [12] 104 % of control | [13] 104 % of control | [14] 119 % of control

COc1ccc(Cc2c3ccccc3cc[n+]2C)cc1Oc1ccc(Cc2c3ccccc3cc[n+]2C)cc1
inactive: dose: 0.78 mg/kg/injection, schedule: Q01DX009 (ip), vehicle: saline 100 % of control | dose: 1.56 mg/kg/injection, schedule: Q01DX009 (ip), vehicle: saline 101 % of control

CCOC(=O)c1ccc(N=CNc2ccc(C(=O)OCC)cc2)cc1
inactive: [15] 100 % of control | [16] 92 % of control | [10] 91 % of control | [11] 87 % of control

CCCCCOc1cc(C(C)=O)cc(OC)c1OC(=O)c1cc([N+](=O)[O-])cc([N+](=O)[O-])c1
inactive: [12] 100 % of control | [13] 90 % of control | [14] 90 % of control

CCCOCNC(=O)c1cccnc1
inactive: dose: 100.0 mg/kg/injection, schedule: Q01DX001 (ip), vehicle: saline 95 % of control | dose: 200.0 mg/kg/injection, schedule: Q01DX001 (ip), vehicle: saline 100 % of control | dose: 400.0 mg/kg/injection, schedule: Q01DX001 (ip), vehicle: saline 100 % of control

CCOC(=O)c1ccccc1S(=O)(=O)c1ccccc1C(=O)OCC
inactive: [17] 106 % of control | [7] 100 % of control | [8] 112 % of control

CC1(C)OC(COS(C)(=O)=O)C(COS(C)(=O)=O)O1 (centres undefined)
inactive: dose: 100.0 mg/kg/injection, schedule: Q04DX002 (ip), vehicle: saline with Tween-80 101 % of control | dose: 200.0 mg/kg/injection, schedule: Q04DX002 (ip), vehicle: saline with Tween-80 104 % of control | dose: 400.0 mg/kg/injection, schedule: Q04DX002 (ip), vehicle: saline with Tween-80 104 % of control

O=C(O)C1CCC=CCC1
inactive: dose: 50.0 mg/kg/injection, schedule: Q04DX003 (ip), vehicle: other 100 % of control | dose: 100.0 mg/kg/injection, schedule: Q04DX003 (ip), vehicle: other 100 % of control | dose: 200.0 mg/kg/injection, schedule: Q04DX003 (ip), vehicle: other 109 % of control

CC(C)C1(C(C)C)OCCO1
inactive: [5] 87 % of control | [18] 108 % of control | dose: 200.0 mg/kg/injection, schedule: Q04DX003 (ip), vehicle: saline 100 % of control

Clc1cccc(N=c2cc3oc4ccccc4nc-3cc2Nc2cccc(Cl)c2)c1
inactive: [15] 96 % of control | [16] 99 % of control | [17] 93 % of control

OCCOc1c(Cl)cc(Cl)cc1Cl
inactive: [17] 100 % of control | [7] 100 % of control | [1] 113 % of control | [8] 100 % of control | [2] 100 % of control

Cc1cc(Oc2ccc(Cl)cc2NC(=O)Nc2cccc(C(F)(F)F)c2)cc(S(=O)(=O)O)c1Cl
inactive: dose: 25.0 mg/kg/injection, schedule: Q01DX001 (ip), vehicle: other 100 % of control | dose: 50.0 mg/kg/injection, schedule: Q01DX001 (ip), vehicle: other 108 % of control | dose: 100.0 mg/kg/injection, schedule: Q01DX001 (ip), vehicle: other 100 % of control

C1CCC2(CC1)SSC1(CCCCC1)S2
inactive: dose: 50.0 mg/kg/injection, schedule: Q01DX009 (ip), vehicle: other 104 % of control | dose: 100.0 mg/kg/injection, schedule: Q01DX009 (ip), vehicle: other 100 % of control | dose: 200.0 mg/kg/injection, schedule: Q01DX009 (ip), vehicle: other 95 % of control

CC1CN(c2ccc([N+](=O)[O-])cc2)C(C)CN1 (centres undefined)
inactive: [4] 100 % of control | [5] 110 % of control | [18] 90 % of control

c1coc(CNc2ncnc3nc[nH]c23)c1
inactive: [7] 95 % of control | [1] 91 % of control | [8] 86 % of control | [2] 95 % of control | [9] 100 % of control | [3] 86 % of control
